Measured values taken from patent publication US5582832A, “Compositions for topical application to skin” (priority 1995, dated 1996).

How the values were obtained:
Type in all cases: cell-based, human
[1] = test system: 25D degradation (vitamin D metabolism in keratinocytes); assay: Vitamin D metabolism in keratinocytes: 25D degradation; conditions: for % degradation (25D): Table 1; for blocking of 25D degradation (in words) / 25D degradation (%): 1 uM; for blocking of 25D degradation (in words): 20 hours (Table 2); for 25D degradation (%): Table 2, 20 hour incubation, mean of duplicate (range); for 25D (% degradation): Table 3, 10 uM; for inhibition of 25D metabolism (in words): results of Table 1
Description: (§1) 1. Normal human keratinocytes isolated from neonatal foreskins by trypsin treatment were grown in DME medium/10% fetal calf serum in the presence of irradiated 3T3 mouse fibroblasts for establishing dividing keratinocyte colonies. Keratinocytes were grown under the above condition until their third passage.
(§2) 80% confluent keratinocytes were incubated with 0.05 uCi of ^3 H-25D or ^3 H-1,25D for two hours or 20 hours in the presence of 1-100 uM of the different compounds. Reaction was stopped by addition of methanol and the cells and medium were extracted using chloroform:methanol. The chloroform layer was separated, dried and spotted on TLC plates. […] The amount of radioactivity in each lane was quantitated using the BioScan radioactive plate reader. The amount of radioactivity remaining in the peak area of 25D and 1,25D were calculated as % of control. The % remaining was subtracted from 100 to get the % degradation of the metabolites.
(§3) The data are expressed as mean of % degradation of 25D or 1,25D. The range is also given in parenthesis.

[2] = test system: 1,25D degradation (vitamin D metabolism in keratinocytes); assay: Vitamin D metabolism in keratinocytes: 1,25D degradation; conditions: for % degradation (1,25D): Table 1; for blocking of 1,25D degradation (in words) / 1,25D degradation (%): 1 uM; for blocking of 1,25D degradation (in words): 20 hours (Table 2); for 1,25D degradation (%): Table 2, 20 hour incubation, mean of duplicate (range); for 1,25D (% degradation): Table 3, 10 uM; for inhibition of 1,25D metabolism (in words): results of Table 1
Description: as §1, §2, §3

keratinocytes = assay: Rate of DNA synthesis (3H-thymidine incorporation) in keratinocytes; conditions: for DNA synthesis, % of control (100 nM 1,25D + 5 uM ceramide Formula A) / DNA synthesis, % of control (azole, only 100 nM 1,25D): Table 4; for DNA synthesis, % of control (100 nM 1,25D + 5 uM ceramide Formula A): 10 uM azole (or no azole) + 100 nM 1,25D + 5 uM ceramide Formula A; for DNA synthesis, % of control (100 nM 1,25D + 5 uM ceramide Formula A) / DNA synthesis, % of control (azole, only 100 nM 1,25D) / DNA synthesis: mean + SD; for DNA synthesis, % of control (100 nM 1,25D + 5 uM ceramide Formula A) / keratinocyte DNA synthesis, % of the corresponding controls (10 uM Econazole) / keratinocyte DNA synthesis, % of the corresponding controls (no azole): * = synergistic effect; for DNA synthesis, % of control (azole, only 100 nM 1,25D): 10 uM azole, no ceramide; for DNA synthesis, % of control (azole, only 100 nM 1,25D) / DNA synthesis / DNA synthesis (% control) / keratinocyte DNA synthesis, % of the corresponding controls (1 uM Econazole) / keratinocyte DNA synthesis, % of the corresponding controls (10 uM Econazole) / keratinocyte DNA synthesis, % of the corresponding controls (no azole): 100 nM 1,25D; for keratinocyte DNA synthesis, % of the corresponding controls (1 uM Econazole) / keratinocyte DNA synthesis, % of the corresponding controls (10 uM Econazole) / keratinocyte DNA synthesis, % of the corresponding controls (no azole): Table 5; for keratinocyte DNA synthesis, % of the corresponding controls (1 uM Econazole): 1 uM ceramide + 1 uM Econazole; for keratinocyte DNA synthesis, % of the corresponding controls (10 uM Econazole): 1 uM ceramide + 10 uM Econazole; for keratinocyte DNA synthesis, % of the corresponding controls (no azole): 1 uM ceramide
Description: as §1
2. For the experiments, third passage keratinocytes were plated into a serum-free keratinocyte growth medium (KSFM; obtained from Life Technologies, Grand Island, N.Y.) containing 0.09 mM calcium. 20,000 to 30,000 cells were plated into each well of 24 well cell culture plates and grown for 5 days, until the cells reach about 80% confluence.
3. Medium was changed to fresh medium and the various test materials were added to the medium from an ethanolic stock solution (10:00 AM). The final ethanol concentration in the cultures was kept below 0.2%. Control cultures received no tested material but were dosed with 0.2% ethanol. Each compound or combination was tested in three separate wells. By 4:00 PM, 1 uCi of ^3 H-thymidine (Amersham Corp., Sp activity 40 Ci/mmol) was added to the 1 ml medium in each well. The cells were incubated overnight and […] (10:00 AM next day) the amount of ^3 -thymidine associated with the cellular DNA of keratinocytes was assessed as described below.
4. The medium was aspirated, and the wells washed with 1 ml phosphate-buffered saline. The DNA and proteins of the cells in the plate were then precipitated by adding 1 ml of ice-cold 10% trichloroacetic acid (TCA). The plates were left on ice for 30 minutes to complete the precipitation process. TCA was then aspirated and each well was then washed four times with 5% TCA. The plates were then dried on a filter pad and the cells in the wells were dissolved in 0.5 ml of 0.1N sodium hydroxide. The sodium hydroxide was then neutralized using 0.1N hydrochloric acid and the solution (1 ml total volume) was then transferred to a scintillation vial. 50 μl samples from each vial were used for protein assay using BCA protein assay reagent obtained from Pierce Chemical Company. 8 ml of a scintillation fluid (Ecolume) was added to the rest of the solution in the vial, and the vials were counted in a scintillation counter to determine the amount of radioactivity in each vial. The DNA synthesis rate was then calculated as cpm ^3 H thymidine incorporated into total cellular DNA/microgram of cell protein for each individual well. Mean and standard deviation for each group was also calculated.
Rationale for using 1,25D is that in in vivo situation, these azoles will inhibit the endogenous degradation of the 1,25D which is obtained from the circulation. Azoles will act in keratinocytes to increase the endogenous levels of 1,25D within cells. Keratinocytes (70% confluent) were incubated with 10 uM of the different azoles in the presence of 100 nM 1,25D. One of the groups was treated with 5 uM of ceramide of Formula A in the medium. After four hours, all the wells were treated with 1 uCi ^3 H-thymidine and the rate of DNA synthesis was estimated as described in the methods.
Keratinocytes were incubated with 1 or 10 uM of Econazole in the presence of 1 uM of the different ceramide analogues and 100 nM 1,25D in the medium. Thymidine incorporation was measured with an overnight incubation as described in Example 2.

[3] = Tables 4A-4F, azole 10 uM, ceramide Formula A 5 uM
[4] = Tables 4A-4F, azole 10 uM, 1440 min
[5] = Tables 5A-5I, Econazole 10 uM, ceramide analogue 1 uM

| SMILES | blocking of 25D degradation (in words) [1] | % degradation (25D) ([1]; 10 uM compound) [%] | 25D degradation (%) [1] | DNA synthesis, % of control (100 nM 1,25D + 5 uM ceramide Formula A) (keratinocytes; 1440 min) | DNA synthesis, % of control (azole, only 100 nM 1,25D) (keratinocytes; 1440 min) | DNA synthesis (keratinocytes; [3]) | DNA synthesis (% control) (keratinocytes; [4]) | blocking of 1,25D degradation (in words) [2] | % degradation (1,25D) ([2]; 10 uM compound) [%] | 1,25D degradation (%) [2] | keratinocyte DNA synthesis, % of the corresponding controls (1 uM Econazole) (keratinocytes) | keratinocyte DNA synthesis, % of the corresponding controls (10 uM Econazole) (keratinocytes) | keratinocyte DNA synthesis, % of the corresponding controls (no azole) (keratinocytes) | DNA synthesis (% control) (keratinocytes; [5]) | DNA synthesis (keratinocytes; [5]) | also measured |
| --- | --- | --- | --- | --- | --- | --- | --- | --- | --- | --- | --- | --- | --- | --- | --- | --- |
| N[C@@H](Cc1c[nH]c2ccccc12)C(=O)O [L-Tryptophan] |  |  |  |  |  |  |  |  |  |  |  |  |  |  |  | % degradation (25D) ([1]; 100 uM compound): 83%; % degradation (1,25D) ([2]; 100 uM compound): 100% |
| Clc1ccccc1C(c1ccccc1)(c1ccccc1)n1ccnc1 [Clotrimazole] | very effective | 5 | 47.4 (42.6-52.2) % | 19.5 + 0.77 % of control | 35.2 + 6.5 % of control | 51610 + 6735 cpm 3H thymidine incorporated | 35.2 | very effective | 2 | 29.5 (21.8-37.2) % |  |  |  |  |  | blocking of 25D metabolism (in words) ([1]; 2 hours): ineffective; blocking of 25D metabolism (in words) ([1]; 20 hours): very effective; 25D (% degradation) ([1]; 2 hours): 79%; 25D (% degradation) ([1]; 20 hours): 5%; inhibition of 25D metabolism (in words) [1]: most potent; blocking of 1,25D metabolism (in words) ([2]; 2 hours): ineffective; blocking of 1,25D metabolism (in words) ([2]; 20 hours): very effective; 1,25D (% degradation) ([2]; 2 hours): 77%; 1,25D (% degradation) ([2]; 20 hours): 2%; inhibition of 1,25D metabolism (in words) [2]: most potent |
| CCCCCCCCCCCCCCCCN(CC(O)CO)C(=O)CCCCC (stereo not drawn) [Formula G] |  |  |  |  |  |  |  |  |  |  | 84.8 + 12.7% | 28.2 + 15.2% | 102.8 ± 14.4% | 102.8 | 30794 + 5311 cpm 3H thymidine incorporated |  |
| CCCCCCCCCCCCC/C=C/C(O)C(CO)NC(C)=O (stereo not drawn) [Formula A] |  |  |  | 81.1 + 16.5 % of control |  | 108753 + 24719 cpm 3H thymidine incorporated |  |  |  |  | 75.9 + 23.3% | 38.2 + 13.9% | 97 + 32% | 97.7 | 29272 + 11126 cpm 3H thymidine incorporated | DNA synthesis (% control) (keratinocytes; Tables 4A-4F, azole 10 uM, ceramide Formula A 5 uM, 1440 min): 74.14 % control |
| CCCCCCCCCCCCCCC(O)CN(CCO)C(=O)CCCCC (stereo not drawn) [Formula D] |  |  |  |  |  |  |  |  |  |  | 97.0 + 19.5% | 28.8 + 3.9% | 69.5 ± 11.3% | 69.5 | 20817 + 3928 cpm 3H thymidine incorporated | growth inhibition by ceramide analogues (in words) (keratinocytes; 1 uM, absence of azole): significantly inhibitory |
| CCCCCCCCCCCCC/C=C/C(O)C(CO)NC(=O)CCCCC (stereo not drawn) [Formula B] |  |  |  |  |  |  |  |  |  |  | 123.9 + 30.3% | 61.7 + 17% | 126.6 ± 17.8% | 126 | 37927 + 6562 cpm 3H thymidine incorporated |  |
| Clc1ccc(COC(Cn2ccnc2)c2ccc(Cl)cc2Cl)cc1 (stereo not drawn) [Econazole] | very effective | 5 | 54.1 (44.3-63.9) % | 22.5 + 2.4 % of control | 64.5 + 3.9 % of control | 94719 + 5732 cpm 3H thymidine incorporated | 64.57 | very effective | 2 | 46.8 (45.1-48.6) % |  |  |  | 50.5 | 15147 + 4337 cpm 3H thymidine incorporated | blocking of 25D metabolism (in words) ([1]; 2 hours): ineffective; blocking of 25D metabolism (in words) ([1]; 20 hours): very effective; 25D (% degradation) ([1]; 2 hours): 92%; 25D (% degradation) ([1]; 20 hours): 5%; inhibition of 25D metabolism (in words) [1]: most potent; blocking of 1,25D metabolism (in words) ([2]; 2 hours): ineffective; blocking of 1,25D metabolism (in words) ([2]; 20 hours): very effective; 1,25D (% degradation) ([2]; 2 hours): 78%; 1,25D (% degradation) ([2]; 20 hours): 2%; inhibition of 1,25D metabolism (in words) [2]: most potent |
| Clc1ccc(COC(Cn2ccnc2)c2ccc(Cl)cc2Cl)c(Cl)c1 (stereo not drawn) [Miconazole] | effective with 25D | 54 | 38.7 (35.4-42.0) % | 17.5 + 3.3 % of control | 42.8 + 1.8 % of control | 62806 + 2649 cpm 3H thymidine incorporated | 42.8 | did not block 1,25D degradation | 70 | 75.8 (69.9-81.8) % |  |  |  |  |  |  |
